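Compound exposure: 48 hours, 5 concentrations, 96-well plates. Here, GI50 denotes the concentration required for 50% inhibition of growth.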 Active and inactive are the calls of the source. Rule as the data show it: active = GI50 up to about 1.1 µM and inactive = higher.
Assays:
Assay in all cases: NCI tumour cell line growth inhibition, 48 h
786-0 = tested on: 786-0
BT-549 = tested on: BT-549
DU-145 = tested on: DU-145
HCT-116 = tested on: HCT-116
HCT-15 = tested on: HCT-15
HT-29 = tested on: HT-29
Hs-578T = tested on: Hs-578T
K562 = tested on: K562
M14 = tested on: M14
MDA-MB-231 = tested on: MDA-MB-231
MOLT-4 = tested on: MOLT-4
NCI-H460 = tested on: NCI-H460
RXF 393 = tested on: RXF 393
SK-MEL-28 = tested on: SK-MEL-28
SK-OV-3 = tested on: SK-OV-3
SNB-19 = tested on: SNB-19
U-251 = tested on: U-251
NCI-H226 = tested on: NCI-H226
SN12C = tested on: SN12C
T47D = tested on: T47D

Compound	GI50 (786-0)	GI50 (BT-549)	GI50 (DU-145)	GI50 (HCT-116)	GI50 (HCT-15) [µM]	GI50 (HT-29)	GI50 (Hs-578T)	GI50 (K562)	GI50 (M14)	GI50 (MDA-MB-231)	GI50 (MOLT-4)	GI50 (NCI-H460)	GI50 (RXF 393)	GI50 (SK-MEL-28)	GI50 (SK-OV-3)	GI50 (SNB-19)	GI50 (U-251)	GI50 (NCI-H226)	GI50 (SN12C)	GI50 (T47D)
C/C(=C\c1ccccn1)c1ccccn1	> 100 µM (inactive)	> 100 µM (inactive)	> 100 µM (inactive)	> 100 µM (inactive)	> 100	> 100 µM (inactive)	> 100 µM (inactive)	> 100 µM (inactive)	> 100 µM (inactive)	> 100 µM (inactive)	> 100 µM (inactive)	> 100 µM (inactive)	> 100 µM (inactive)	> 100 µM (inactive)	> 100 µM (inactive)	> 100 µM (inactive)	> 100 µM (inactive)	–	–	–
O=[N+]([O-])c1ccc2c(c1)=[N+]([O-])C1(CCCCC1)[N+]=2[O-]	11.5 µM (inactive)	–	18.9 µM (inactive)	17.1 µM (inactive)	18.2	19.5 µM (inactive)	21.5 µM (inactive)	15.8 µM (inactive)	15.6 µM (inactive)	18.2 µM (inactive)	6.15 µM (inactive)	18.8 µM (inactive)	18.5 µM (inactive)	19.3 µM (inactive)	22.5 µM (inactive)	36.4 µM (inactive)	17.2 µM (inactive)	21.1 µM (inactive)	17.5 µM (inactive)	25.5 µM (inactive)
CC12CCCCC1=[N+]([O-])C(C)(C)N2O (stereo not drawn)	> 100 µM (inactive)	–	> 100 µM (inactive)	> 100 µM (inactive)	> 100	> 100 µM (inactive)	> 100 µM (inactive)	> 10 µM (inactive)	> 100 µM (inactive)	> 100 µM (inactive)	–	> 100 µM (inactive)	> 100 µM (inactive)	> 100 µM (inactive)	> 100 µM (inactive)	> 100 µM (inactive)	> 100 µM (inactive)	> 100 µM (inactive)	> 100 µM (inactive)	> 100 µM (inactive)
Nc1ncnc2c1ncn2[C@@H]1C[C@H]1CO	> 100 µM (inactive)	> 10 µM (inactive)	–	> 100 µM (inactive)	> 100	> 100 µM (inactive)	> 100 µM (inactive)	> 100 µM (inactive)	> 100 µM (inactive)	> 100 µM (inactive)	> 100 µM (inactive)	> 100 µM (inactive)	–	–	–	> 100 µM (inactive)	> 100 µM (inactive)	> 100 µM (inactive)	> 100 µM (inactive)	> 100 µM (inactive)
CCC(=O)COc1ccc(NC(NC(=O)C(C(F)(F)F)C(F)(F)F)(C(F)(F)F)C(F)(F)F)cc1	23.1 µM (inactive)	–	22.2 µM (inactive)	20.6 µM (inactive)	27.5	22.7 µM (inactive)	31 µM (inactive)	–	47.8 µM (inactive)	26.5 µM (inactive)	14.3 µM (inactive)	77.4 µM (inactive)	18.6 µM (inactive)	59.4 µM (inactive)	55.6 µM (inactive)	46.9 µM (inactive)	46.7 µM (inactive)	19.2 µM (inactive)	> 10 µM (inactive)	20.6 µM (inactive)
COc1ccc(N2C(=O)CC(=O)N(C(=O)COc3ccc(OCC(=O)N4C(=O)CC(=O)N(c5ccc(OC)cc5)C4=S)cc3)C2=S)cc1	36.5 µM (inactive)	50.1 µM (inactive)	49.9 µM (inactive)	15.7 µM (inactive)	48.6	47.8 µM (inactive)	–	41.4 µM (inactive)	54.5 µM (inactive)	30.3 µM (inactive)	32 µM (inactive)	25.7 µM (inactive)	23.7 µM (inactive)	48.1 µM (inactive)	29.2 µM (inactive)	40.3 µM (inactive)	37.1 µM (inactive)	30.5 µM (inactive)	43.3 µM (inactive)	–
COC(CN(C=O)[C@@H](c1ccc(Cl)cc1)c1cc2ccccc2o1)OC	23.6 µM (inactive)	–	14.8 µM (inactive)	15.8 µM (inactive)	17	17.1 µM (inactive)	14 µM (inactive)	24.4 µM (inactive)	17.3 µM (inactive)	18.5 µM (inactive)	17.8 µM (inactive)	15.5 µM (inactive)	14.6 µM (inactive)	18.5 µM (inactive)	0.841 µM (active)	19.4 µM (inactive)	17.3 µM (inactive)	18.1 µM (inactive)	17.2 µM (inactive)	11.6 µM (inactive)
COc1ccc(C2SCC(=O)N2c2ccc(-n3c(-c4ccccc4)nc4ccccc4c3=O)cc2)cc1OC (stereo not drawn)	> 100 µM (inactive)	> 100 µM (inactive)	–	> 100 µM (inactive)	> 100	> 100 µM (inactive)	99.8 µM (inactive)	> 100 µM (inactive)	> 100 µM (inactive)	> 100 µM (inactive)	24.5 µM (inactive)	> 100 µM (inactive)	–	> 100 µM (inactive)	> 100 µM (inactive)	> 100 µM (inactive)	> 100 µM (inactive)	31.3 µM (inactive)	> 100 µM (inactive)	90.6 µM (inactive)
CCOP(C)(=O)C(Nc1ccc(F)cc1)c1ccc(F)cc1 (stereo not drawn)	> 100 µM (inactive)	–	> 100 µM (inactive)	> 100 µM (inactive)	> 100	> 100 µM (inactive)	> 100 µM (inactive)	> 100 µM (inactive)	> 100 µM (inactive)	> 100 µM (inactive)	> 100 µM (inactive)	> 100 µM (inactive)	> 100 µM (inactive)	> 100 µM (inactive)	> 100 µM (inactive)	> 100 µM (inactive)	> 100 µM (inactive)	> 100 µM (inactive)	> 100 µM (inactive)	> 100 µM (inactive)
COC1O[C@H]2[C@H]3[C@@H]1[C@@H](OS(=O)(=O)c1ccc(C)cc1)C(=O)N3C[C@H]2O (stereo partly drawn)	> 100 µM (inactive)	> 100 µM (inactive)	> 100 µM (inactive)	> 100 µM (inactive)	> 100	> 100 µM (inactive)	–	65.9 µM (inactive)	> 100 µM (inactive)	> 100 µM (inactive)	48.5 µM (inactive)	> 100 µM (inactive)	17.9 µM (inactive)	> 100 µM (inactive)	> 100 µM (inactive)	> 100 µM (inactive)	> 100 µM (inactive)	> 100 µM (inactive)	–	64.4 µM (inactive)
O=C(O)c1cc2ccccc2c(/N=N/c2ccc(S(=O)(=O)Nc3ncccn3)cc2)c1O	> 100 µM (inactive)	> 100 µM (inactive)	–	> 100 µM (inactive)	> 100	> 100 µM (inactive)	> 100 µM (inactive)	> 100 µM (inactive)	> 100 µM (inactive)	> 100 µM (inactive)	> 100 µM (inactive)	> 100 µM (inactive)	> 100 µM (inactive)	> 100 µM (inactive)	> 100 µM (inactive)	> 100 µM (inactive)	> 100 µM (inactive)	> 100 µM (inactive)	–	–
O=c1oc2cc(O)ccc2cc1-c1nc2ccccc2s1	22.8 µM (inactive)	16.9 µM (inactive)	29.2 µM (inactive)	21.8 µM (inactive)	20.1	29 µM (inactive)	–	7.41 µM (inactive)	24.5 µM (inactive)	23.7 µM (inactive)	0.678 µM (active)	21.2 µM (inactive)	31.7 µM (inactive)	0.0656 µM (active)	38.8 µM (inactive)	30.8 µM (inactive)	23 µM (inactive)	–	21.8 µM (inactive)	31.3 µM (inactive)
COc1cc(C2c3cc4c(cc3OC(C)(O)C2C)OCO4)cc(OC)c1OC (stereo not drawn)	0.708 µM (active)	5.42 µM (inactive)	0.456 µM (active)	0.333 µM (active)	0.4	0.344 µM (active)	0.449 µM (active)	0.274 µM (active)	–	0.433 µM (active)	0.513 µM (active)	0.406 µM (active)	0.211 µM (active)	–	–	0.342 µM (active)	0.443 µM (active)	1.31 µM (inactive)	0.505 µM (active)	–
CCc1nnc(CC)n1N1C(=O)CCC1=O	> 100 µM (inactive)	> 100 µM (inactive)	> 100 µM (inactive)	> 100 µM (inactive)	> 100	> 100 µM (inactive)	–	> 100 µM (inactive)	> 100 µM (inactive)	> 100 µM (inactive)	> 100 µM (inactive)	–	> 100 µM (inactive)	> 100 µM (inactive)	> 100 µM (inactive)	> 100 µM (inactive)	> 100 µM (inactive)	–	> 100 µM (inactive)	–
Cc1cc(Br)cc(C)c1NC(=O)C(=O)C1C(=O)C(CC2C(=O)c3ccccc3C2=O)C(=O)CC1(C)C (stereo not drawn)	> 100 µM (inactive)	> 100 µM (inactive)	> 100 µM (inactive)	83.2 µM (inactive)	63.5	> 100 µM (inactive)	> 100 µM (inactive)	–	> 100 µM (inactive)	55 µM (inactive)	18.1 µM (inactive)	> 100 µM (inactive)	3.66 µM (inactive)	> 100 µM (inactive)	> 100 µM (inactive)	> 100 µM (inactive)	> 100 µM (inactive)	67.5 µM (inactive)	> 100 µM (inactive)	–
CC1CCC2c3c([nH]c4ccccc34)C3C(=O)N(C4CCCCC4)C(=O)C3C2C1 (stereo not drawn)	6.85 µM (inactive)	14.1 µM (inactive)	30 µM (inactive)	11.9 µM (inactive)	49.8	> 100 µM (inactive)	13 µM (inactive)	19 µM (inactive)	23.7 µM (inactive)	11.8 µM (inactive)	–	26 µM (inactive)	13.7 µM (inactive)	15.1 µM (inactive)	18 µM (inactive)	16.4 µM (inactive)	12.7 µM (inactive)	16.5 µM (inactive)	22.9 µM (inactive)	–

— ChEMBL document CHEMBL1201862, “PubChem BioAssay data set” (2004)
